Laboratory results: patent publication US20070049564A1 (Wyeth, priority 2005, published 2007)
Converted amounts (≈) assume the structure as drawn. Like-named read-outs stand apart in the source and are kept apart here.

Experiments:
E. coli = assay: Range of MIC for E. coli strains; conditions: Escherichia coli
Staph. = assay: Range of MIC for Staph. strains, including MRSA; conditions: Staphylococcus aureus, MRSA
[1] = read-out: Range of MIC, E. coli (Water)
[2] = read-out: Range of MIC, Staph (Mouse Serum)
[3] = read-out: Range of MIC, Staph (Water)
[4] = 20 h, read-out: Range of MIC, E. coli (Mouse Serum)

CN(C)c1cc(NC(=O)OCOC(=O)c2cccs2)c(O)c2c1C[C@H]1C[C@H]3[C@H](N(C)C)C(O)=C(C(N)=O)C(=O)[C@@]3(O)C(O)=C1C2=O [Example 75, [({[(5aR,6aS,7S,10aS)-9-(aminocarbonyl)-4,7-bis(dimethylamino)-1,8,10a,11-tetrahydroxy-10,12-dioxo-5,5a,6,6a,7,10,10a,12-octahydrotetracen-2-yl]amino}carbonyl)oxy]methyl thiophene-2-carboxylate]
MIC (E. coli; [1]): > 64 µg/mL
MIC (Staph.; [2]): 8 to 16 µg/mL (≈ 12.2 to 24.4 µM)
MIC (Staph.; [3]): 16 to 32 µg/mL (≈ 24.4 to 48.7 µM)

COc1cc(C(=O)OCOC(=O)N(CC(=O)Nc2cc(N(C)C)c3c(c2O)C(=O)C2=C(O)[C@]4(O)C(=O)C(C(N)=O)=C(O)[C@@H](N(C)C)[C@@H]4C[C@@H]2C3)C(C)(C)C)cc(OC)c1OC [Example 97, ({[(2-{[(5aR,6aS,7S,10aS)-9-(aminocarbonyl)-4,7-bis(dimethylamino)-1,8,10a,11-tetrahydroxy-10,12-dioxo-5,5a,6,6a,7,10,10a,12-octahydrotetracen-2-yl]amino}-2-oxoethyl)(tert-butyl)amino]carbonyl}oxy)methyl 3,4,5-trimethoxybenzoate]
MIC (E. coli; [4]): 4 to 8 µg/mL (≈ 4.68 to 9.37 µM)
MIC (E. coli; [1]): > 64 µg/mL
MIC (Staph.; [2]): 1 to 4 µg/mL (≈ 1.17 to 4.68 µM)
MIC (Staph.; [3]): 4 to 8 µg/mL (≈ 4.68 to 9.37 µM)

CN(C)c1cc(NC(=O)CN(C(=O)OCOC(=O)c2ccncc2)C(C)(C)C)c(O)c2c1C[C@H]1C[C@H]3[C@H](N(C)C)C(O)=C(C(N)=O)C(=O)[C@@]3(O)C(O)=C1C2=O [Example 89, ({[(2-{[(5aR,6aS,7S,10aS)-9-(aminocarbonyl)-4,7-bis(dimethylamino)-1,8,10a,11-tetrahydroxy-10,12-dioxo-5,5a,6,6a,7,10,10a,12-octahydrotetracen-2-yl]amino}-2-oxoethyl)(tert-butyl)amino]carbonyl}oxy)methyl isonicotinate]
MIC (E. coli; [4]): 0.25 to 1 µg/mL (≈ 0.327 to 1.31 µM)
MIC (E. coli; [1]): 4 to 8 µg/mL (≈ 5.23 to 10.5 µM)
MIC (Staph.; [2]): 0.5 to 1 µg/mL (≈ 0.654 to 1.31 µM)
MIC (Staph.; [3]): 1 to 4 µg/mL (≈ 1.31 to 5.23 µM)

CN(C)c1cc(NC(=O)CN(C(=O)OCOC(=O)c2ccc(C(=O)c3ccccc3)cc2)C(C)(C)C)c(O)c2c1C[C@H]1C[C@H]3[C@H](N(C)C)C(O)=C(C(N)=O)C(=O)[C@@]3(O)C(O)=C1C2=O [Example 107, ({[(2-{[(5aR,6aS,7S,10aS)-9-(aminocarbonyl)-4,7-bis(dimethylamino)-1,8,10a,11-tetrahydroxy-10,12-dioxo-5,5a,6,6a,7,10,10a,12-octahydrotetracen-2-yl]amino}-2-oxoethyl)(tert-butyl)amino]carbonyl}oxy)methyl 4-benzoylbenzoate]
MIC (E. coli; [4]): > 64 µg/mL
MIC (E. coli; [1]): 0.5 to 1 µg/mL (≈ 0.576 to 1.15 µM)
MIC (Staph.; [2]): 2 to 8 µg/mL (≈ 2.3 to 9.22 µM)
MIC (Staph.; [3]): 0.5 to 1 µg/mL (≈ 0.576 to 1.15 µM)

CCCCCCCCCCCCOc1ccc(C(=O)OCOC(=O)N(CC(=O)Nc2cc(N(C)C)c3c(c2O)C(=O)C2=C(O)[C@]4(O)C(=O)C(C(N)=O)=C(O)[C@@H](N(C)C)[C@@H]4C[C@@H]2C3)C(C)(C)C)cc1 [Example 104]
MIC (E. coli; [4]): 8 to 16 µg/mL (≈ 8.44 to 16.9 µM)
MIC (E. coli; [1]): > 64 µg/mL
MIC (Staph.; [2]): 16 to 64 µg/mL (≈ 16.9 to 67.5 µM)

Cc1cccc(C)c1C(=O)OCOC(=O)N(CC(=O)Nc1cc(N(C)C)c2c(c1O)C(=O)C1=C(O)[C@]3(O)C(=O)C(C(N)=O)=C(O)[C@@H](N(C)C)[C@@H]3C[C@@H]1C2)C(C)(C)C [Example 66, ({[(2-{[(5aR,6aS,7S,10aS)-9-(aminocarbonyl)-4,7-bis(dimethylamino)-1,8,10a,11-tetrahydroxy-10,12-dioxo-5,5a,6,6a,7,10,10a,12-octahydrotetracen-2-yl]amino}-2-oxoethyl)(tert-butyl)amino]carbonyl}oxy)methyl 2,6-dimethylbenzoate]
MIC (E. coli; [4]): > 128 µg/mL
MIC (E. coli; [1]): > 128 µg/mL
MIC (Staph.; [2]): 1 to 16 µg/mL (≈ 1.26 to 20.2 µM)
MIC (Staph.; [3]): 2 to 16 µg/mL (≈ 2.53 to 20.2 µM)

CC(=O)Nc1ccc(C(=O)OCOC(=O)N(CC(=O)Nc2cc(N(C)C)c3c(c2O)C(=O)C2=C(O)[C@]4(O)C(=O)C(C(N)=O)=C(O)[C@@H](N(C)C)[C@@H]4C[C@@H]2C3)C(C)(C)C)cc1 [Example 105]
MIC (E. coli; [4]): 2 µg/mL (≈ 2.44 µM)
MIC (E. coli; [1]): > 64 µg/mL
MIC (Staph.; [2]): 1 to 2 µg/mL (≈ 1.22 to 2.44 µM)

CN(C)c1cc(NC(=O)CN(C(=O)OCOC(=O)C(C)(C)C)C(C)(C)C)c(O)c2c1C[C@H]1C[C@H]3[C@H](N(C)C)C(O)=C(C(N)=O)C(=O)[C@@]3(O)C(O)=C1C2=O [Example 68, ({[(2-{[(5aR,6aS,7S,10aS)-9-(aminocarbonyl)-4,7-bis(dimethylamino)-1,8,10a,11-tetrahydroxy-10,12-dioxo-5,5a,6,6a,7,10,10a,12-octahydrotetracen-2-yl]amino}-2-oxoethyl)(tert-butyl)amino]carbonyl}oxy)methyl pivalate]
MIC (E. coli; [4]): 0.12 to 1 µg/mL (≈ 0.161 to 1.34 µM)
MIC (E. coli; [1]): 2 to 8 µg/mL (≈ 2.69 to 10.8 µM)
MIC (Staph.; [2]): 0.12 to 0.25 µg/mL (≈ 0.161 to 0.336 µM)
MIC (Staph.; [3]): 0.12 to 1 µg/mL (≈ 0.161 to 1.34 µM)

CN(C)c1cc(NC(=O)CN(C(=O)OCOC(=O)c2ccc3ccccc3n2)C(C)(C)C)c(O)c2c1C[C@H]1C[C@H]3[C@H](N(C)C)C(O)=C(C(N)=O)C(=O)[C@@]3(O)C(O)=C1C2=O [Example 84, ({[(2-{[(5aR,6aS,7S,10aS)-9-(aminocarbonyl)-4,7-bis(dimethylamino)-1,8,10a,11-tetrahydroxy-10,12-dioxo-5,5a,6,6a,7,10,10a,12-octahydrotetracen-2-yl]amino}-2-oxoethyl)(tert-butyl)amino]carbonyl}oxy)methyl quinoline-2-carboxylate]
MIC (E. coli; [4]): 2 to 4 µg/mL (≈ 2.45 to 4.91 µM)
MIC (E. coli; [1]): > 64 µg/mL
MIC (Staph.; [2]): 0.5 to 2 µg/mL (≈ 0.614 to 2.45 µM)
MIC (Staph.; [3]): 0.5 to 4 µg/mL (≈ 0.614 to 4.91 µM)

CN(C)c1cc(NC(=O)CN(C(=O)OCOC(=O)CC2CCCCC2)C(C)(C)C)c(O)c2c1C[C@H]1C[C@H]3[C@H](N(C)C)C(O)=C(C(N)=O)C(=O)[C@@]3(O)C(O)=C1C2=O [Example 65, ({[(2-{[(5aR,6aS,7S,10aS)-9-(aminocarbonyl)-4,7-bis(dimethylamino)-1,8,10a,11-tetrahydroxy-10,12-dioxo-5,5a,6,6a,7,10,10a,12-octahydrotetracen-2-yl]amino}-2-oxoethyl)(tert-butyl)amino]carbonyl}oxy)methyl cyclohexylacetate]
MIC (E. coli; [4]): 0.12 to 0.5 µg/mL (≈ 0.153 to 0.638 µM)
MIC (E. coli; [1]): 16 µg/mL (≈ 20.4 µM)
MIC (Staph.; [2]): 0.12 to 0.5 µg/mL (≈ 0.153 to 0.638 µM)
MIC (Staph.; [3]): 0.12 to 1 µg/mL (≈ 0.153 to 1.28 µM)

COc1cc(OC)cc(C(=O)OCOC(=O)N(CC(=O)Nc2cc(N(C)C)c3c(c2O)C(=O)C2=C(O)[C@]4(O)C(=O)C(C(N)=O)=C(O)[C@@H](N(C)C)[C@@H]4C[C@@H]2C3)C(C)(C)C)c1 [Example 98, ({[(2-{[(5aR,6aS,7S,10aS)-9-(aminocarbonyl)-4,7-bis(dimethylamino)-1,8,10a,11-tetrahydroxy-10,12-dioxo-5,5a,6,6a,7,10,10a,12-octahydrotetracen-2-yl]amino}-2-oxoethyl)(tert-butyl)amino]carbonyl}oxy)methyl 3,5-dimethoxybenzoate]
MIC (E. coli; [4]): 1 to 4 µg/mL (≈ 1.21 to 4.86 µM)
MIC (E. coli; [1]): > 64 µg/mL
MIC (Staph.; [2]): 0.5 to 2 µg/mL (≈ 0.607 to 2.43 µM)
MIC (Staph.; [3]): 2 to 4 µg/mL (≈ 2.43 to 4.86 µM)

CN(C)c1cc(NC(=O)CN(C(=O)OCOC(=O)Cc2cc(C(F)(F)F)cc(C(F)(F)F)c2)C(C)(C)C)c(O)c2c1C[C@H]1C[C@H]3[C@H](N(C)C)C(O)=C(C(N)=O)C(=O)[C@@]3(O)C(O)=C1C2=O [Example 101, ({[(2-{[(5aR,6aS,7S,10aS)-9-(aminocarbonyl)-4,7-bis(dimethylamino)-1,8,10a,11-tetrahydroxy-10,12-dioxo-5,5a,6,6a,7,10,10a,12-octahydrotetracen-2-yl]amino}-2-oxoethyl)(tert-butyl)amino]carbonyl}oxy)methyl [3,5-bis(trifluoromethyl)phenyl]acetate]
MIC (E. coli; [4]): 1 µg/mL (≈ 1.09 µM)
MIC (E. coli; [1]): 16 to 32 µg/mL (≈ 17.5 to 35 µM)
MIC (Staph.; [2]): 0.5 to 2 µg/mL (≈ 0.547 to 2.19 µM)
MIC (Staph.; [3]): 4 to 16 µg/mL (≈ 4.38 to 17.5 µM)

CCC(CC)C(=O)OCOC(=O)Nc1cc(N(C)C)c2c(c1O)C(=O)C1=C(O)[C@]3(O)C(=O)C(C(N)=O)=C(O)[C@@H](N(C)C)[C@@H]3C[C@@H]1C2 [Example 85, [({[(5aR,6aS,7S,10aS)-9-(aminocarbonyl)-4,7-bis(dimethylamino)-1,8,10a,11-tetrahydroxy-10,12-dioxo-5,5a,6,6a,7,10,10a,12-octahydrotetracen-2-yl]amino}carbonyl)oxy]methyl 2-ethylbutanoate]
MIC (E. coli; [4]): 1 to 2 µg/mL (≈ 1.55 to 3.1 µM)
MIC (E. coli; [1]): > 64 µg/mL
MIC (Staph.; [2]): 1 to 2 µg/mL (≈ 1.55 to 3.1 µM)
MIC (Staph.; [3]): 4 to 16 µg/mL (≈ 6.2 to 24.8 µM)

CN(C)c1cc(NC(=O)CN(C(=O)OCOC(=O)c2ccccc2CCc2ccccc2)C(C)(C)C)c(O)c2c1C[C@H]1C[C@H]3[C@H](N(C)C)C(O)=C(C(N)=O)C(=O)[C@@]3(O)C(O)=C1C2=O [Example 103, ({[(2-{[(5aR,6aS,7S,10aS)-9-(aminocarbonyl)-4,7-bis(dimethylamino)-1,8,10a,11-tetrahydroxy-10,12-dioxo-5,5a,6,6a,7,10,10a,12-octahydrotetracen-2-yl]amino}-2-oxoethyl)(tert-butyl)amino]carbonyl}oxy)methyl 2-(2-phenylethyl)benzoate]
MIC (E. coli; [4]): 8 to 16 µg/mL (≈ 9.22 to 18.4 µM)
MIC (E. coli; [1]): > 64 µg/mL
MIC (Staph.; [2]): 8 to 16 µg/mL (≈ 9.22 to 18.4 µM)

COc1ccc(C(=O)OCOC(=O)N(CC(=O)Nc2cc(N(C)C)c3c(c2O)C(=O)C2=C(O)[C@]4(O)C(=O)C(C(N)=O)=C(O)[C@@H](N(C)C)[C@@H]4C[C@@H]2C3)C(C)(C)C)cc1 [Example 72, ({[(2-{[(5aR,6aS,7S,10aS)-9-(aminocarbonyl)-4,7-bis(dimethylamino)-1,8,10a,11-tetrahydroxy-10,12-dioxo-5,5a,6,6a,7,10,10a,12-octahydrotetracen-2-yl]amino}-2-oxoethyl)(tert-butyl)amino]carbonyl}oxy)methyl 4-methoxybenzoate]
MIC (E. coli; [4]): 0.5 to 1 µg/mL (≈ 0.63 to 1.26 µM)
MIC (E. coli; [1]): > 64 µg/mL
MIC (Staph.; [2]): 0.5 to 1 µg/mL (≈ 0.63 to 1.26 µM)
MIC (Staph.; [3]): 4 to 8 µg/mL (≈ 5.04 to 10.1 µM)

CCC(C)(C)C(=O)OCOC(=O)Nc1cc(N(C)C)c2c(c1O)C(=O)C1=C(O)[C@]3(O)C(=O)C(C(N)=O)=C(O)[C@@H](N(C)C)[C@@H]3C[C@@H]1C2 [Example 80, [({[(5aR,6aS,7S,10aS)-9-(aminocarbonyl)-4,7-bis(dimethylamino)-1,8,10a,11-tetrahydroxy-10,12-dioxo-5,5a,6,6a,7,10,10a,12-octahydrotetracen-2-yl]amino}carbonyl)oxy]methyl 2,2-dimethylbutanoate]
MIC (Staph.; [2]): 4 to 8 µg/mL (≈ 6.2 to 12.4 µM)
MIC (Staph.; [3]): 4 to 16 µg/mL (≈ 6.2 to 24.8 µM)
